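Protocol summary: plate cells (96-well), add compound at 5 concentrations, incubate 48 h, interpolate endpoints linearly. Here, GI50 denotes the concentration required for 50% inhibition of growth.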 Activity calls are given as the source filed them. Cut-off read from the data, not from the text of the source: active = GI50 up to about 1.1 µM and inactive = higher.
How the values were obtained:
Assay in all cases: NCI-60 cell line screen, 48 h
NCI-H460 = tested on: NCI-H460
UACC-62 = tested on: UACC-62
HOP-62 = tested on: HOP-62
HT-29 = tested on: HT-29
CCRF-CEM = tested on: CCRF-CEM
HCT-116 = tested on: HCT-116
NCI-H522 = tested on: NCI-H522
HOP-92 = tested on: HOP-92
M14 = tested on: M14
SK-OV-3 = tested on: SK-OV-3
ACHN = tested on: ACHN
SF-295 = tested on: SF-295
OVCAR-8 = tested on: OVCAR-8
Hs-578T = tested on: Hs-578T
DU-145 = tested on: DU-145
U-251 = tested on: U-251
OVCAR-3 = tested on: OVCAR-3
SNB-75 = tested on: SNB-75
MDA-MB-231 = tested on: MDA-MB-231
SF-539 = tested on: SF-539

| SMILES | GI50 (NCI-H460) | GI50 (UACC-62) | GI50 (HOP-62) | GI50 (HT-29) | GI50 (CCRF-CEM) | GI50 (HCT-116) | GI50 (NCI-H522) | GI50 (HOP-92) | GI50 (M14) | GI50 (SK-OV-3) | GI50 (ACHN) | GI50 (SF-295) | GI50 (OVCAR-8) | GI50 (Hs-578T) | GI50 (DU-145) | GI50 (U-251) | GI50 (OVCAR-3) | GI50 (SNB-75) | GI50 (MDA-MB-231) | GI50 (SF-539) |
| --- | --- | --- | --- | --- | --- | --- | --- | --- | --- | --- | --- | --- | --- | --- | --- | --- | --- | --- | --- | --- |
| O=C(O)[C@H]1CCCN1CP(=O)(O)CN1CCC[C@@H]1C(=O)O | > 100 µM (inactive) | > 100 µM (inactive) | > 100 µM (inactive) | > 100 µM (inactive) | > 100 µM (inactive) | > 100 µM (inactive) | > 100 µM (inactive) | > 100 µM (inactive) | > 100 µM (inactive) | > 100 µM (inactive) | > 100 µM (inactive) | > 100 µM (inactive) | > 100 µM (inactive) | > 100 µM (inactive) | > 100 µM (inactive) | > 100 µM (inactive) | > 100 µM (inactive) | > 100 µM (inactive) | > 100 µM (inactive) |  |
| Nc1c(Cl)ncnc1NCC1(CO)CCC1 | > 100 µM (inactive) |  | > 100 µM (inactive) | > 100 µM (inactive) | > 100 µM (inactive) | > 100 µM (inactive) | > 100 µM (inactive) | > 100 µM (inactive) |  |  | > 100 µM (inactive) | > 100 µM (inactive) | > 100 µM (inactive) | > 100 µM (inactive) | > 100 µM (inactive) | > 100 µM (inactive) | > 100 µM (inactive) | > 100 µM (inactive) | > 100 µM (inactive) | > 100 µM (inactive) |
| CCC1(O)C(=O)OCc2c1cc1n(c2=O)Cc2cc3ccccc3nc2-1 (stereo unspecified) | < 0.0403 µM (active) | 0.0128 µM (active) | < 0.0149 µM (active) | 0.0653 µM (active) | < 0.0122 µM (active) | 0.048 µM (active) | 0.0471 µM (active) | 0.12 µM (active) | < 0.01 µM (active) | 0.0312 µM (active) | 0.153 µM (active) | < 0.01 µM (active) | 0.0653 µM (active) | 7.73 µM (inactive) | 0.018 µM (active) | 0.0261 µM (active) | 0.308 µM (active) | < 0.0215 µM (active) | 0.857 µM (active) | 0.0157 µM (active) |
| CC(C)C[C@H](NC(=O)[C@H](Cc1cccc2ccccc12)NC(=O)N1CCOCC1)B(O)O | < 0.012 µM (active) | < 0.01 µM (active) | < 0.01 µM (active) | < 0.01 µM (active) | < 0.01 µM (active) | < 0.01 µM (active) | < 0.01 µM (active) | < 0.01 µM (active) | < 0.01 µM (active) | 0.008 µM (active) | < 0.01 µM (active) | 0.00348 µM (active) | < 0.0128 µM (active) | < 0.01 µM (active) | < 0.01 µM (active) | < 0.01 µM (active) | < 0.01 µM (active) | < 0.01 µM (active) | < 0.01 µM (active) | < 0.01 µM (active) |
| CC(C(=O)NCNC(=O)c1ccccc1)C(=O)NCc1ccccc1 (stereo unspecified) | > 100 µM (inactive) | > 100 µM (inactive) |  | > 100 µM (inactive) | > 100 µM (inactive) | > 100 µM (inactive) | 99.3 µM (inactive) | > 100 µM (inactive) | > 100 µM (inactive) | > 100 µM (inactive) | > 100 µM (inactive) | > 100 µM (inactive) | > 100 µM (inactive) | > 100 µM (inactive) | > 100 µM (inactive) | > 100 µM (inactive) |  | > 100 µM (inactive) | > 100 µM (inactive) | > 100 µM (inactive) |
| O=C1CCC(=O)N1n1c(Cc2ccc(Cl)cc2)n[nH]c1=O | > 100 µM (inactive) | > 100 µM (inactive) |  | > 100 µM (inactive) |  | > 100 µM (inactive) | > 100 µM (inactive) | > 100 µM (inactive) | > 100 µM (inactive) | > 100 µM (inactive) | > 100 µM (inactive) | > 100 µM (inactive) | > 100 µM (inactive) | > 100 µM (inactive) | > 100 µM (inactive) | > 100 µM (inactive) | > 100 µM (inactive) |  | > 100 µM (inactive) | > 100 µM (inactive) |
| Oc1c(-c2ccccc2)sc2ccccc12 | 19.1 µM (inactive) | 49.3 µM (inactive) | 16.7 µM (inactive) | 31.3 µM (inactive) | 29.8 µM (inactive) | 18.7 µM (inactive) | 27.9 µM (inactive) | 21.9 µM (inactive) | 20.2 µM (inactive) |  | 24.7 µM (inactive) | 19.5 µM (inactive) | 31.6 µM (inactive) | 43.9 µM (inactive) | 18.8 µM (inactive) | 29.4 µM (inactive) | 10.2 µM (inactive) | 12.4 µM (inactive) | 7.55 µM (inactive) | 44.5 µM (inactive) |
| CC(=O)C(N1CCCCC1)C(O)(C(F)(F)F)C(F)(F)F (stereo unspecified) | 89.1 µM (inactive) | 86.9 µM (inactive) |  | > 100 µM (inactive) | 37.3 µM (inactive) | 58.3 µM (inactive) | 64 µM (inactive) | 54.3 µM (inactive) | > 100 µM (inactive) | > 100 µM (inactive) | > 100 µM (inactive) | > 100 µM (inactive) | > 100 µM (inactive) | 41.1 µM (inactive) | > 100 µM (inactive) | 88.9 µM (inactive) | 42.4 µM (inactive) | 33.4 µM (inactive) | > 100 µM (inactive) | > 100 µM (inactive) |
| CN1CC[C@]23c4c5ccc(O)c4OC2c2[nH]ncc2C[C@H]3[C@H]1C5 (stereo partly specified) | > 100 µM (inactive) | > 100 µM (inactive) | > 100 µM (inactive) | > 100 µM (inactive) | > 100 µM (inactive) | > 100 µM (inactive) | > 100 µM (inactive) | > 100 µM (inactive) | > 100 µM (inactive) | > 100 µM (inactive) | > 100 µM (inactive) | > 100 µM (inactive) | > 100 µM (inactive) | > 100 µM (inactive) | > 100 µM (inactive) | > 100 µM (inactive) | > 100 µM (inactive) | 94.6 µM (inactive) | > 100 µM (inactive) |  |
| CN(/N=C\c1ccc2ccccc2c1)C1=NCCN1 | 12.5 µM (inactive) | 18.3 µM (inactive) | 18.5 µM (inactive) | 13.3 µM (inactive) | 24.3 µM (inactive) | 15.8 µM (inactive) | 15.7 µM (inactive) | 0.0817 µM (active) |  | 35.8 µM (inactive) | 23.1 µM (inactive) | 14.4 µM (inactive) | 30.3 µM (inactive) | 20.4 µM (inactive) | 25.6 µM (inactive) | 18 µM (inactive) | 31.9 µM (inactive) | 10.6 µM (inactive) | 16.4 µM (inactive) | 17.7 µM (inactive) |
| COc1ccc2c(c1)C1c3ccccc3CCN1CCC2 (stereo unspecified) |  | 23.7 µM (inactive) | 58.6 µM (inactive) | 33.3 µM (inactive) | 38.5 µM (inactive) | 32.1 µM (inactive) | 28.4 µM (inactive) | 70.3 µM (inactive) | 32.1 µM (inactive) | 36.6 µM (inactive) | 64.9 µM (inactive) | 23.8 µM (inactive) | 54.5 µM (inactive) | 42.9 µM (inactive) | > 100 µM (inactive) | 32.6 µM (inactive) | 73.8 µM (inactive) | 19.3 µM (inactive) | 35.8 µM (inactive) | 47.3 µM (inactive) |

— ChEMBL document CHEMBL1201862, “PubChem BioAssay data set” (2004)
